Inhibition zone and IC50 data for 3 compounds are collected here from patent US20060217360A1, “Tubulysin biosynthesis gene” (priority 2002, published 2006).

What all share (assay type): cell-based
Assay [1] relates to Aspergillus niger. Put plainly: Agar diffusion test, spectrum of action on fungi. Conditions: 20 μg per test disc of 6 mm diameter. A general note: In agar diffusion tests the substance spreads into inoculated agar from a disc or well.
In assay [2] the test system is L929, mouse (ATCC CCL1). The assay can be described thus: Cytostatic action on animal cell line.
Assay [3] has as its system Pt K2, Potorous tridactylis (ATCC CCL 56). Put plainly: Cytostatic action on animal cell line.
The test system of assay [4] is Botrytis cineria. Put plainly: Agar diffusion test, spectrum of action on fungi. Conditions: 20 μg per test disc of 6 mm diameter.
The test system of assay [5] is K-562 (ATCC CCL 243). The assay can be described thus: Cytostatic action on human cancer cell line. As to conditions: K-562 human cancer cell line.
Assay [6] relates to HL-60 (ATCC-CCL 240). Put plainly: Cytostatic action on human cancer cell line. As to conditions: HL-60 human cancer cell line.
The test system of assay [7] is KB-3-1 (DSM ACC 158). The assay can be described thus: Cytostatic action on human cancer cell line. Conditions: KB-3-1 human cancer cell line.
Assay [8] has as its system Pythinum debaryanum. Put plainly: Agar diffusion test, spectrum of action on fungi. Conditions: 20 μg per test disc of 6 mm diameter.
In assay [9] the test system is Coprinus cinereus. Put plainly: Agar diffusion test, spectrum of action on fungi. As to conditions: 20 μg per test disc of 6 mm diameter.

In general, IC50 refers to the concentration that inhibits the measured activity by half. Higher therefore signals weaker potency.

Values after ≈ are worked out from the molar mass of the structure shown.

With `CCCC(=O)OCN(C(=O)[C@@H](NC(=O)[C@H]1CCCCN1C)[C@@H](C)CC)[C@H](C[C@@H](OC(C)=O)c1nc(C(=O)N[C@@H](Cc2ccc(O)cc2)C[C@H](C)C(=O)O)cs1)C(C)C` [Tubulysin B], the Inhibition zone in assay [1] and in assay [4] was 18 mm in each case. In addition, the IC50 came to 0.4 ng/mL (≈ 0.482 nM) in assay [2]; 0.2 ng/mL (≈ 0.241 nM) in assay [3]; 0.2 ng/mL (≈ 0.241 nM) in [5]; 0.08 ng/mL (≈ 0.0964 nM) in assay [6]; 0.02 ng/mL (≈ 0.0241 nM) in [7].

With `CC[C@H](C)[C@H](NC(=O)[C@H]1CCCCN1C)C(=O)N(COC(=O)CC(C)C)[C@H](C[C@@H](OC(C)=O)c1nc(C(=O)N[C@@H](Cc2ccc(O)cc2)C[C@H](C)C(=O)O)cs1)C(C)C` [Tubulysin A], the Inhibition zone in assay [8] is 20 mm; in [1] it was 20 mm; in assay [4], 23 mm; in assay [9], 20 mm. Also, the IC50 in assay [2] was found to be 0.2 ng/mL (≈ 0.237 nM); in [3], 0.2 ng/mL (≈ 0.237 nM); in assay [5], 0.1 ng/mL (≈ 0.118 nM); in [6], 0.04 ng/mL (≈ 0.0474 nM); in assay [7], 0.01 ng/mL (≈ 0.0118 nM).

For the compound `CCC(=O)OCN(C(=O)[C@@H](NC(=O)[C@H]1CCCCN1C)[C@@H](C)CC)[C@H](C[C@@H](OC(C)=O)c1nc(C(=O)N[C@@H](Cc2ccc(O)cc2)C[C@H](C)C(=O)O)cs1)C(C)C` [Tubulysin C], the IC50 in [2] turned out to be 2 ng/mL (≈ 2.45 nM); in assay [3], 2 ng/mL (≈ 2.45 nM); in assay [5], 1.5 ng/mL (≈ 1.84 nM); in assay [6], 0.4 ng/mL (≈ 0.49 nM); in [7], 0.1 ng/mL (≈ 0.123 nM).
